Test results published in paper PMC4619619, “Diversity of Active States in TMT Opsins” (PLoS ONE, 2015).

Tests used:
[1] = target: T1, medaka TMT1A opsin (C-terminally truncated) (Oryzias latipes, UniProt R9R6D2); assay: UV-visible spectroscopy; HPLC of chromophore; format: binding; details: covalent (Schiff base); formed in situ by orange light (>540 nm) from the all-trans state; 0 °C
T1 construct: gene tmtops1a; C-terminal 63 residues deleted; C-terminal rho1D4 tag (ETSQVAPA) kept; HEK293T, pMT4; purified in dodecyl maltoside, also membranes; cDNA cloned from medaka brain
T1 sequence (R9R6D2 1-342): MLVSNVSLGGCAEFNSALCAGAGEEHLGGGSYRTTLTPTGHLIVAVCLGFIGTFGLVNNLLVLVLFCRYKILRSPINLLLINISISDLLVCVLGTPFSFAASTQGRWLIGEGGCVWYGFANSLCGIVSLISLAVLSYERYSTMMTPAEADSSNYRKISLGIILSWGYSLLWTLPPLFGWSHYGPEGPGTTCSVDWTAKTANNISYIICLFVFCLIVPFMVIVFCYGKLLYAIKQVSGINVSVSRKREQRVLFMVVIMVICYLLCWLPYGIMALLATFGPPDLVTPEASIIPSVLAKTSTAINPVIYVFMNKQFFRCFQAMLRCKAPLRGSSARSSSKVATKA

medaka TMT2 opsin [2] = target: T2, medaka TMT2 opsin (Oryzias latipes, UniProt R9R6C6); assay: UV-visible spectroscopy; acid denaturation; HPLC; GTPγS exchange with Gi and Go; format: biochemical; details: covalent (unprotonated Schiff base); agonist; formed in situ by blue light (460 nm); 0 °C
T2 construct: gene tmtops2; full length; C-terminal rho1D4 tag (ETSQVAPA) kept; HEK293T, pMT4; partially purified in dodecyl maltoside, also membranes; cDNA cloned from medaka brain
T2 sequence (R9R6C6 1-355): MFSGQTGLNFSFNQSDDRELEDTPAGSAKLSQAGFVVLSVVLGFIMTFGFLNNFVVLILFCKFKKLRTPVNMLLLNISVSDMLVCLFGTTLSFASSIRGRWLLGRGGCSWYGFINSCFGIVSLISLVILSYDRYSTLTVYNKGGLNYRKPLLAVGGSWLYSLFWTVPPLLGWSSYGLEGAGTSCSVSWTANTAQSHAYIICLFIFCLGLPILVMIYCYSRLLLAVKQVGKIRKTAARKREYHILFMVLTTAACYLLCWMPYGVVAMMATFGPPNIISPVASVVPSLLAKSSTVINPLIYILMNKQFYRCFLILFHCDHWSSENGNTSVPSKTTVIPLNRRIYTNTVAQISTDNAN

[3] = target: T1, medaka TMT1A opsin (C-terminally truncated); assay: UV-visible spectroscopy; HPLC of chromophore; GTPγS exchange with Gi and Go; format: biochemical; details: covalent (protonated Schiff base); agonist; formed in situ by blue light (460 nm); 0 °C
full-length TMT1A opsin = target: T3, full-length TMT1A opsin (Oryzias latipes, UniProt R9R6D2); assay: UV-visible spectroscopy; format: binding; details: covalent (Schiff base); reconstituted pigment
T3 construct: gene tmtops1a; full length; C-terminal rho1D4 tag (ETSQVAPA) kept; HEK293T, pMT4; purified
T3 sequence (R9R6D2 1-405): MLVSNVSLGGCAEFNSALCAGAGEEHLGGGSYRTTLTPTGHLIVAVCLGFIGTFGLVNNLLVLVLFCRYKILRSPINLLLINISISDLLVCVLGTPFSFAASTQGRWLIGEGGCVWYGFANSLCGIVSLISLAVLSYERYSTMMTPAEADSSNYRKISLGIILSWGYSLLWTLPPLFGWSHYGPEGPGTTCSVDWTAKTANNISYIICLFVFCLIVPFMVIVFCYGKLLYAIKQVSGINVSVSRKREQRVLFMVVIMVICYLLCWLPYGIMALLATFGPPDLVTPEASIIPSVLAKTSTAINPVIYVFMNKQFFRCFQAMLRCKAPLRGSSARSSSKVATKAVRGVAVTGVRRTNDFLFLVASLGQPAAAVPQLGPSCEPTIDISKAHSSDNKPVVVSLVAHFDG

medaka TMT2 opsin [4] = target: T2, medaka TMT2 opsin; assay: UV-visible spectroscopy; HPLC of chromophore; format: binding; details: covalent (Schiff base); reconstituted pigment in the dark; 0 °C, pH 6.5, 0.02% dodecyl maltoside
[5] = target: T4, medaka TMT1A opsin (C-terminally truncated) (Oryzias latipes, UniProt R9R6D2, T190S); assay: UV-visible spectroscopy before and after irradiation; format: binding; details: covalent (Schiff base); 0 °C; bovine rhodopsin numbering; truncation of mutant not stated
T4 construct: gene tmtops1a; C-terminal 63 residues deleted; C-terminal rho1D4 tag (ETSQVAPA) kept; HEK293T, pMT4; purified in dodecyl maltoside, also membranes; cDNA cloned from medaka brain
T4 sequence (R9R6D2 entry or part of it T190S): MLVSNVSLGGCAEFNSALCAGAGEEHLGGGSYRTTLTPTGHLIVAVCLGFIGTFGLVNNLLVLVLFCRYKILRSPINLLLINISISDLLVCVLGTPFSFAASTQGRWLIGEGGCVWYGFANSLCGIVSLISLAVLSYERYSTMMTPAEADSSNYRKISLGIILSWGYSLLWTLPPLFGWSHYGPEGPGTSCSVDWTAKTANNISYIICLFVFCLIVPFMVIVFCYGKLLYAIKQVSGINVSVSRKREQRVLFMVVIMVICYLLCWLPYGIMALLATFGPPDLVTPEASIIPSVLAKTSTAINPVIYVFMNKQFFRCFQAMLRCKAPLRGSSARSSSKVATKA

CC1=C(/C=C/C(C)=C\C=C\C(C)=C\C=O)C(C)(C)CCC1 [9-cis-retinal]
UV-visible spectroscopy; HPLC of chromophore [1]: showed the formation of products having 9-cis and 7-cis forms (Fig 2E)

CC1=C(\C=C/C(C)=C/C=C/C(C)=C/C=O)C(C)(C)CCC1 [7-cis-retinal]
UV-visible spectroscopy; HPLC of chromophore [1]: showed the formation of products having 9-cis and 7-cis forms (Fig 2E)

CC1=C(/C=C/C(C)=C/C=C/C(C)=C/C=O)C(C)(C)CCC1 [all-trans-retinal]
UV-visible spectroscopy; acid denaturation; HPLC; GTPγS exchange with Gi and Go (medaka TMT2 opsin [2]): indicating that the all-trans product was the G protein-activating state of TMT2 opsin
UV-visible spectroscopy; HPLC of chromophore; GTPγS exchange with Gi and Go [3]: indicating that the all-trans product is a G protein-activating state

CC1=C(/C=C/C(C)=C/C=C\C(C)=C\C=O)C(C)(C)CCC1 [11-cis-retinal]
UV-visible spectroscopy (full-length TMT1A opsin): Full-length pigment was formed after reconstitution with 11-cis-retinal
UV-visible spectroscopy; HPLC of chromophore (medaka TMT2 opsin [4]): partially purified pigment of TMT2 opsin after reconstitution with 11-cis-retinal
UV-visible spectroscopy before and after irradiation [5]: We then constructed a single mutant (T186S) of TMT1A opsin
